From patent EP1121151B1, “ANTI-INFLAMMATORY ALPHA2, BETA1 INTEGRIN-RELATED SUBSTANCES OR ANTIBODIES” (Lindbom, Lennart, priority 1998, dated 2006)

Test system: PMN
Experiment: Intravital time lapse videomicroscopy of PAF-stimulated PMN locomotion in rat mesenteric tissue in vivo
Conditions: rat mesentery, PAF 10^-7 M
Procedure: Intravital time lapse videomicroscopy of PMN locomotion in vivo. PMN locomotion in rat mesenteric tissue was studied through use of intravital time lapse videomicroscopy according to the protocol previously described in detail (Werr et al., supra). In brief, Wistar rats (200-250 g) were anesthetized with equal parts of fluanison/fentanyl (10/0.2 mg/ml; Hypnorm; Janssen-Cilag Ltd., Saunderton, UK) and midazolam (5 mg/ml; Dormicum; Hoffman-La Roche, Basel, Switzerland) diluted 1:1 with sterile water (2 ml/kg i.m.). Body temperature was maintained at 37° C by a heating pad connected to a rectal thermistor. After laparotomy, a segment of the ileum was exposed on a heated transparent pedestal to allow microscopic observation of the mesenteric microvasculature (Orthoplan microscope equipped with water immersion lens SW×25, NA 0.60; Leitz, Wetzlar, Germany). The microscopic image was televised and recorded on time lapse video (at 1/7 of normal speed). Analysis of leukocyte migration in the mesenteric tissue was made off line and the migration path of individual leukocytes was tracked with a digital image analyzer. […]

ACRGDGWMCG
effect on PMN migration at ten-fold higher concentrations (ten-fold higher concentrations than 500 µM, some experiments): did not yield different effects | effect on PMN migration (topical administration, peptide 500 µM): without effect
